Reference: ChEMBL document CHEMBL5696439 (Cancer Res, 2010)
Active and inactive are the calls of the source. The calls are words filed in the database; no cut-off is given here.

How the values were obtained:
[1] = molecular target: Mitogen-activated protein kinase 8 (Homo sapiens) (UniProt P45983); test: Inhibition of recombinant human full length His-tagged MAPK8 expressed in insect cells at 2 uM using Ser/Thr 04 as substrate measured after 1 hr by Z'-LYTE assay relative to control; details: Insect cell
[2] = molecular target: Inhibitor of nuclear factor kappa-B kinase subunit beta (Homo sapiens) (UniProt O14920); test: Inhibition of recombinant human full-length GST-tagged IKBKB expressed in insect cells at 2 uM using Ser/Thr 05 as substrate measured after 1 hr by Z'-LYTE assay relative to control; details: Insect cell
[3] = molecular target: Macrophage-stimulating protein receptor (Homo sapiens) (UniProt Q04912); test: Inhibition of recombinant human GST-tagged MST1R (983-1400 residues) expressed in insect cells at 2 uM using Tyr 06 as substrate measured after 1 hr by Z'-LYTE assay relative to control; details: Insect cell
[4] = molecular target: Cytoplasmic tyrosine-protein kinase BMX (Homo sapiens) (UniProt P51813); test: Inhibition of recombinant human full-length His-tagged BMX expressed in insect cells at 2 uM using Tyr 01 as substrate measured after 1 hr by Z'-LYTE assay relative to control; details: Insect cell
[5] = molecular target: Serine/threonine-protein kinase PLK1 (Homo sapiens) (UniProt P53350); test: Inhibition of recombinant human full length His-tagged PLK1 expressed in insect cells at 2 uM using Ser/Thr 16 as substrate measured after 1 hr by Z'-LYTE assay relative to control; details: Insect cell
MDA-MB-361 [6] = test: Induction of apoptosis in human MDA-MB-361 cells assessed as PARP cleavage at 0.05 to 5 micromol/L incubated for 48 hrs by Western blot analysis; format: functional, cell-based; details: dose 0.05-5 µmol/L
[7] = molecular target: Fibroblast growth factor receptor 1 (Homo sapiens) (UniProt P11362); test: Inhibition of recombinant human His-tagged FGFR1 (308-731 residues) expressed in baculovirus expression system at 2 uM using Tyr 04 as substrate measured after 1 hr by Z'-LYTE assay relative to control
[8] = molecular target: Ribosomal protein S6 kinase alpha-2 (Homo sapiens) (UniProt Q15349); test: Inhibition of recombinant human full length GST-tagged RPS6KA2 expressed in insect cells at 2 uM using Ser/Thr 06 as substrate measured after 1 hr by Z'-LYTE assay relative to control; details: Insect cell
[9] = molecular target: Tyrosine-protein kinase JAK2 (Homo sapiens) (UniProt O60674); test: Inhibition of recombinant human GST-tagged JAK2 (809-1153 +9 residues) expressed in insect cells at 2 uM using Tyr 06 as substrate measured after 1 hr by Z'-LYTE assay relative to control; details: Insect cell
786-0 [10] = test: Antiproliferative activity against human 786-0 cells assessed as cell growth inhibition incubated for 24 hrs by MTS assay; format: functional, cell-based; details: 786-0, 24 h
786-0 [11] = test: Antitumor activity against PTEN null-human 786-0 cells xenografted in female nude mouse model assessed as suppression in tumor growth at 25 mg/kg, po qd administered as 5 days on/2 days off regimen for 4 cycles relative to control; format: functional; details: time 28 day
[12] = molecular target: Serine/threonine-protein kinase SMG1 (Homo sapiens, UniProt Q96Q15); test: Inhibition of human SMG1 using glutathione S-transferase-p53 as substrate by DELFIA
[13] = molecular target: G protein-coupled receptor kinase 3 (Homo sapiens) (UniProt P35626); test: Inhibition of recombinant human full-length GST-tagged ADRBK2 expressed in insect cells at 2 uM using Ser/Thr 16 as substrate measured after 1 hr by Z'-LYTE assay relative to control; details: Insect cell
MDA-MB-361 [14] = test: Antitumor activity against human MDA-MB-361 cells assessed as block the accumulation of HIF-2alpha in low oxygen at 0.3 micromol/L incubated for 24 hrs by immunoblot analysis; format: functional, cell-based; details: dose 0.3 µmol/L
MDA-MB-361 [15] = test: Antitumor activity against human MDA-MB-361 cells xenografted in female nude mouse model assessed as induction in PARP cleavage at 50 mg/kg, po qd administered as 5 days on/2 days off regimen for 4 cycles by immunoblot analysis; format: functional, organism-based; details: time 28.0 day
[16] = test system: RAF proto-oncogene serine/threonine-protein kinase (Homo sapiens), P04049 [Y340D,Y341D]; test: Inhibition of recombinant human GST-tagged RAF1 Y340D/Y341D double mutant (306-648 residues) expressed in insect cells at 2 uM using Ser/Thr 03 as substrate measured after 1 hr by Z'-LYTE assay relative to control; details: Insect cell
MDA-MB-361 [17] = test: Antitumor activity against human MDA-MB-361 cells xenografted in female nude mouse model assessed as suppression in P-S6K at T389 level at 50 mg/kg, iv administered once a week and measured at least 8 hrs by immunoblot analysis; format: functional, organism-based
[18] = molecular target: Protein-tyrosine kinase 6 (Homo sapiens) (UniProt Q13882); test: Inhibition of recombinant human full length His-tagged PTK6 expressed in baculovirus expression system at 2 uM using […] as substrate measured after 1 hr by Z'-LYTE assay relative to control
[19] = molecular target: Macrophage colony-stimulating factor 1 receptor (Homo sapiens) (UniProt P07333); test: Inhibition of recombinant human His-tagged CSF1R (538-910 residues) expressed in baculovirus expression system at 2 uM using Tyr 01 as substrate measured after 1 hr by Z'-LYTE assay relative to control
A549 = test: Antitumor activity against human A549 cells xenografted in female nude mouse model assessed as inhibition in tumor growth at 10 to 50 mg/kg, po qd administered as 5 days on/2 days off regimen for 4 cycles; format: functional, organism-based; details: dose 10-50 mg/kg, time 28.0 day
[20] = molecular target: Serine/threonine-protein kinase Sgk1 (Homo sapiens) (UniProt O00141); test: Inhibition of recombinant human GST-tagged SGK (60-431 residues) expressed in insect cells at 2 uM using Ser/Thr 06 as substrate measured after 1 hr by Z'-LYTE assay relative to control; details: Insect cell
[21] = molecular target: Leukocyte tyrosine kinase receptor (Homo sapiens) (UniProt P29376); test: Inhibition of recombinant human GST-tagged LTK (450-864 residues) expressed in insect cells at 2 uM using Tyr 06 as substrate measured after 1 hr by Z'-LYTE assay relative to control; details: Insect cell
MDA-MB-361 [22] = test: Antiproliferative activity against human MDA-MB-361 cells assessed as cell growth inhibition at 10 micromol/L incubated for 3 days by MTS assay relative to control; format: functional; details: MDA-MB-361, 72 h, dose 10 µmol/L, time 3 day
A498 = test: cells; details: Homo sapiens, A498, 72 h
Description: Antiproliferative activity against human A498 cells assessed as cell growth inhibition incubated for 3 days by MTS assay

MDA-MB-361 [23] = test: Induction of apoptosis in HER2 hyperactive human MDA-MB-361 cells assessed as cell death at 0.001 to 100 micromol/L incubated for 24 hrs by FACS analysis; format: functional, cell-based; details: dose 0.001-100 µmol/L
mTORC2 (Homo sapiens) = mTORC2 (Homo sapiens) (UniProt P42345+Q6R327+Q9BVC4+Q9BPZ7); details: U-87 MG, dose 0.025-2 µmol/L, time 6.0 hrs

Sequence of Cytoplasmic tyrosine-protein kinase BMX (Homo sapiens) (P51813 whole entry): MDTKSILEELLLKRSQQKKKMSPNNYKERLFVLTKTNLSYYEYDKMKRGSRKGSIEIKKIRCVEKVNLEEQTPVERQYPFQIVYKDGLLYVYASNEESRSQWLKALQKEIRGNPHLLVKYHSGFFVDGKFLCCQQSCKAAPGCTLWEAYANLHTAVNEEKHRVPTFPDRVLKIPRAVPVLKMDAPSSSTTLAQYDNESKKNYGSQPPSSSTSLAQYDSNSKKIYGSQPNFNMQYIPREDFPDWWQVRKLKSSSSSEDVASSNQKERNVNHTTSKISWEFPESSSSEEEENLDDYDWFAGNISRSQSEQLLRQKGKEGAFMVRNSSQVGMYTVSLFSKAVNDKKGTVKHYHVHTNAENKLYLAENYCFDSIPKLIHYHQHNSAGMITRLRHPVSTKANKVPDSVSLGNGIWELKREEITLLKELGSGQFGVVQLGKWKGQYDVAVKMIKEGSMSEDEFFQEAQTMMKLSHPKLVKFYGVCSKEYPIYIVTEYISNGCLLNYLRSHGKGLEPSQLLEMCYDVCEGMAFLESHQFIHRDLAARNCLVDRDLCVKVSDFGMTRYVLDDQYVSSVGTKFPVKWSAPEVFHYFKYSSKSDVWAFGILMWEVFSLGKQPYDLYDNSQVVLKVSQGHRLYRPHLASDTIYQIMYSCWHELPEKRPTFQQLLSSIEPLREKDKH
Sequence of Fibroblast growth factor receptor 1 (Homo sapiens) (P11362 22-822 limits assumed): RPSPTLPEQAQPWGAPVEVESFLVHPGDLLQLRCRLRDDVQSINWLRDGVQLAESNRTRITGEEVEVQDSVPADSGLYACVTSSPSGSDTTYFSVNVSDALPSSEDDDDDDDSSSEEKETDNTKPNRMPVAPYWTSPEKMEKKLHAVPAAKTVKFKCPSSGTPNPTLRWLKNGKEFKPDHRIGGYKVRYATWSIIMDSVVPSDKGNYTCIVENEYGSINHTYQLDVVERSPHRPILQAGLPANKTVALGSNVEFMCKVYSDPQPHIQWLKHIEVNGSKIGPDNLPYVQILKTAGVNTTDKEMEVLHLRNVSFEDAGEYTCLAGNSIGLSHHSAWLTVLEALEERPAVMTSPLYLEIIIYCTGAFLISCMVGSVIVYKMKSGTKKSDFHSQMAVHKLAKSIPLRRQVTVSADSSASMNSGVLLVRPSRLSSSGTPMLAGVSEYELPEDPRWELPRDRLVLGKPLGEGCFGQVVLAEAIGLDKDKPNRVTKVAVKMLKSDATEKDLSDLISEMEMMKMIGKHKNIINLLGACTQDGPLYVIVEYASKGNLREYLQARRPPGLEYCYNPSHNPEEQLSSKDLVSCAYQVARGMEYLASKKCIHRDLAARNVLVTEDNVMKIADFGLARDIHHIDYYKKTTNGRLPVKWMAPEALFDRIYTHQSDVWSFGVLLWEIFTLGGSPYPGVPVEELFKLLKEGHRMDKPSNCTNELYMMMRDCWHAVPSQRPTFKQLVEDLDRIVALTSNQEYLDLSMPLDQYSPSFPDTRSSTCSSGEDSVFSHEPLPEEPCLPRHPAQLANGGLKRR
Sequence of G protein-coupled receptor kinase 3 (Homo sapiens) (P35626 whole entry): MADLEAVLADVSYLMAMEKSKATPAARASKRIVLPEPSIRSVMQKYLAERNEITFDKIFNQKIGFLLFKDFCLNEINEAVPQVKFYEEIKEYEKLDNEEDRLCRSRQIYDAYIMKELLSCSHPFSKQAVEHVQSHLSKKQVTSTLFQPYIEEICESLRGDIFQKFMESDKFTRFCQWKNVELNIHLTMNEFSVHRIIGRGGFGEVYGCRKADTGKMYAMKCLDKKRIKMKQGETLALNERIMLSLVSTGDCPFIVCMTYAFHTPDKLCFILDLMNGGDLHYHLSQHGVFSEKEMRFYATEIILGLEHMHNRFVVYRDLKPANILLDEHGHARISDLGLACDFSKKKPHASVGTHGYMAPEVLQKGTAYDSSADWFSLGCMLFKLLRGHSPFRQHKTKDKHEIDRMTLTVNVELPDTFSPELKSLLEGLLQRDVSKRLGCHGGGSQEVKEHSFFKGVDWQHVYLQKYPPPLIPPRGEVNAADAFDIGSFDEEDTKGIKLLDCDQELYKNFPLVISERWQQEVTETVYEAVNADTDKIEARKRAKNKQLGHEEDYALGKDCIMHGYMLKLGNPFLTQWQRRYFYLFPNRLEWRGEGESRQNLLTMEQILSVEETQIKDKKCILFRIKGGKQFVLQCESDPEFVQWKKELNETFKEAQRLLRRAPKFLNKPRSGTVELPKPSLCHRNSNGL
Sequence of Mitogen-activated protein kinase 8 (Homo sapiens) (P45983 whole entry): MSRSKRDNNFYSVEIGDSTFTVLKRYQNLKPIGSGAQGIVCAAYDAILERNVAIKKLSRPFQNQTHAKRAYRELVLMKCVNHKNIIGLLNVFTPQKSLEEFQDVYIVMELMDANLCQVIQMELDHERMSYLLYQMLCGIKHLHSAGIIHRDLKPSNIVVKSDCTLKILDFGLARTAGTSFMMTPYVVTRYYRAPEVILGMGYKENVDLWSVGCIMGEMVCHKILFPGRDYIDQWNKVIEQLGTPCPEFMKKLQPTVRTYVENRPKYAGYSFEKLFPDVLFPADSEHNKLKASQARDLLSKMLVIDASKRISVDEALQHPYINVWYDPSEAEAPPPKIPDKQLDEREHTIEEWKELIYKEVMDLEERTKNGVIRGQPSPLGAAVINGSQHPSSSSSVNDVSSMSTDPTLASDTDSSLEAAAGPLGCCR
Sequence of Inhibitor of nuclear factor kappa-B kinase subunit beta (Homo sapiens) (O14920 whole entry, the tested form may be a part): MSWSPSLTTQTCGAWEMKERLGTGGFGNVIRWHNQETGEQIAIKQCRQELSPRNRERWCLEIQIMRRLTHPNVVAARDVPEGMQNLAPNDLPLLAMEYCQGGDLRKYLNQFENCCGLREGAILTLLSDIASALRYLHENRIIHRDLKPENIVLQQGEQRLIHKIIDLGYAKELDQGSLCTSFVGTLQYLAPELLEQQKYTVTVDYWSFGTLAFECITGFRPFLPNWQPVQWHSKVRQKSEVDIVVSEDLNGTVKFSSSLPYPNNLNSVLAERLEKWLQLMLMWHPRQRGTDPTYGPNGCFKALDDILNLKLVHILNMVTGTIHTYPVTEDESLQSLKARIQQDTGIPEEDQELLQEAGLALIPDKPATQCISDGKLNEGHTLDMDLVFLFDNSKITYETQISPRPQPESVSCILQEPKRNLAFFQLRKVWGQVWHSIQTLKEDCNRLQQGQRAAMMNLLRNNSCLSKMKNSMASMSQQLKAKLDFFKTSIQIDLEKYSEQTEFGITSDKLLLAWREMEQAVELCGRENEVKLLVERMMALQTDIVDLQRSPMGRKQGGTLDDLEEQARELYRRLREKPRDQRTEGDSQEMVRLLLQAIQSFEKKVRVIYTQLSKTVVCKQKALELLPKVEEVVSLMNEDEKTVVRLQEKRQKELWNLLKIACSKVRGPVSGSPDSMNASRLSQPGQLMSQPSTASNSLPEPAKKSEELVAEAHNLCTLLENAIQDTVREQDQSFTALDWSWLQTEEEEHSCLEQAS
Sequence of Macrophage-stimulating protein receptor (Homo sapiens) (Q04912 25-304 limits assumed): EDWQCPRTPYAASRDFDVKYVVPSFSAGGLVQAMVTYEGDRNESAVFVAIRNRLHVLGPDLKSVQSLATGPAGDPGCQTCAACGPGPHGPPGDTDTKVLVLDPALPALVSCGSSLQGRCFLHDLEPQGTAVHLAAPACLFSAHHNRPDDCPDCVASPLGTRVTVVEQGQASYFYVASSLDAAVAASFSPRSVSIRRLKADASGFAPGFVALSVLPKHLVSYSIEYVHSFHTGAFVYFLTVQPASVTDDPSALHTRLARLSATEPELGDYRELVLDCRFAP
Sequence of Macrophage-stimulating protein receptor (Homo sapiens) (Q04912 310-1400 limits assumed): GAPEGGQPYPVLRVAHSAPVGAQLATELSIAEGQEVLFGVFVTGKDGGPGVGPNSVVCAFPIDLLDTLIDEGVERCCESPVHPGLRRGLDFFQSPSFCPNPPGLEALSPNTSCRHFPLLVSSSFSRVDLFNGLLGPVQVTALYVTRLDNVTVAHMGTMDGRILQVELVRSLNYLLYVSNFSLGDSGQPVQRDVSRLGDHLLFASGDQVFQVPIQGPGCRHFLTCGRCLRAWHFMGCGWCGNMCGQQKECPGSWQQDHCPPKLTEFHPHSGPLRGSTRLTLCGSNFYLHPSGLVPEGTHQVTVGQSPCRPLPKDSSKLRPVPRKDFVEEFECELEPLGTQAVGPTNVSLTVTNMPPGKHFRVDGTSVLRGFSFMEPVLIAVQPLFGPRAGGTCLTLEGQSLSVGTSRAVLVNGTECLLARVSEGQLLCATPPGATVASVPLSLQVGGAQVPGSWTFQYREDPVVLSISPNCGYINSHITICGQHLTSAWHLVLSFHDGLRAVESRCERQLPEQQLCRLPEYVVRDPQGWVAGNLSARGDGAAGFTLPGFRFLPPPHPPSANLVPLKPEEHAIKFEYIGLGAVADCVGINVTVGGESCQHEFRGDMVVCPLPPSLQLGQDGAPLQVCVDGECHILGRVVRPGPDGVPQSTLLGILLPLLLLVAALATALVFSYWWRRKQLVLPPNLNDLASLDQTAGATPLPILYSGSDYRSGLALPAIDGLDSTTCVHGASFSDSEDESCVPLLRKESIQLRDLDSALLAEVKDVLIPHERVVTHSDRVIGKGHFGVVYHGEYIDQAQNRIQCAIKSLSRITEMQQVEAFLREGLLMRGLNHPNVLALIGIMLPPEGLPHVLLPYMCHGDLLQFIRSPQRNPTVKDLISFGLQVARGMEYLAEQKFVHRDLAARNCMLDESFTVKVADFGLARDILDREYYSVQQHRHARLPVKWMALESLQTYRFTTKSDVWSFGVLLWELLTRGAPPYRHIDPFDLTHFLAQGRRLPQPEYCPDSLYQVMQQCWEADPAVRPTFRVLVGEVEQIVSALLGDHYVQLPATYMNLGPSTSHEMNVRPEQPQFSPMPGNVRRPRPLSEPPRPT

CNC(=O)Nc1ccc(-c2nc(N3CC4CCC(C3)O4)c3cnn(C4CCC5(CC4)OCCO5)c3n2)cc1
inhibition [1]: 12%
inhibition [2]: -5%
inhibition [3]: -1%
inhibition [4]: 10%
inhibition [5]: -4%
Activity (MDA-MB-361 [6]): Active
inhibition [7]: 4%
inhibition [8]: -1%
inhibition [9]: -3%
IC50 (786-0 [10]): 120 nM
Activity (786-0 [11]): 100%
IC50 [12]: 1250 nM
inhibition [13]: -3%
Activity (MDA-MB-361 [14]): Active
Activity (MDA-MB-361 [15]): Active
inhibition [16]: 12%
Activity (MDA-MB-361 [17]): Active
inhibition [18]: 8%
inhibition [19]: 7%
inhibition (A549): Dose-Dependent Effect
inhibition [20]: -2%
inhibition [21]: 8%
inhibition at 10 µM (MDA-MB-361 [22]): 100%
IC50 (A498): 100 nM
Activity (MDA-MB-361 [23]): Active
inhibition (mTORC2 (Homo sapiens)): inactive
